Data taken from ChEMBL document CHEMBL1268885, “Subtype-selective Na(v)1.8 sodium channel blockers: identification of potent, orally active nicotinamide derivatives” (Bioorg Med Chem Lett, 2010).
Converted amounts (≈) assume the structure as drawn.

What was measured:
[1] = target: Sodium channel protein type 10 subunit alpha (Homo sapiens, UniProt Q9Y5Y9); experiment: Inhibition of human NaV1.8 by electrophysiology
Homo sapiens [2] = species: Homo sapiens; experiment: Selectivity ratio of IC50 for human ERG to IC50 for human Nav1.8
[3] = target: Sodium channel protein type 10 subunit alpha (Rattus norvegicus, UniProt Q62968); experiment: Inhibition of tetrodotoxin-resistant NaV1.8 in rat DRG neuron by electrophysiology
Homo sapiens [4] = species: Homo sapiens; experiment: Selectivity ratio of IC50 for human NAv1.2 to IC50 for human Nav1.8
[5] = target: Sodium channel protein type 10 subunit alpha (Mus musculus, UniProt Q6QIY3); experiment: Inhibition of mouse NaV1.8 by isotopic flux assay
[6] = target: Sodium channel protein type 2 subunit alpha (Homo sapiens, UniProt Q99250); experiment: Inhibition of human NaV1.2 by electrophysiology
Chain of Sodium channel protein type 2 subunit alpha (Q99250 whole entry): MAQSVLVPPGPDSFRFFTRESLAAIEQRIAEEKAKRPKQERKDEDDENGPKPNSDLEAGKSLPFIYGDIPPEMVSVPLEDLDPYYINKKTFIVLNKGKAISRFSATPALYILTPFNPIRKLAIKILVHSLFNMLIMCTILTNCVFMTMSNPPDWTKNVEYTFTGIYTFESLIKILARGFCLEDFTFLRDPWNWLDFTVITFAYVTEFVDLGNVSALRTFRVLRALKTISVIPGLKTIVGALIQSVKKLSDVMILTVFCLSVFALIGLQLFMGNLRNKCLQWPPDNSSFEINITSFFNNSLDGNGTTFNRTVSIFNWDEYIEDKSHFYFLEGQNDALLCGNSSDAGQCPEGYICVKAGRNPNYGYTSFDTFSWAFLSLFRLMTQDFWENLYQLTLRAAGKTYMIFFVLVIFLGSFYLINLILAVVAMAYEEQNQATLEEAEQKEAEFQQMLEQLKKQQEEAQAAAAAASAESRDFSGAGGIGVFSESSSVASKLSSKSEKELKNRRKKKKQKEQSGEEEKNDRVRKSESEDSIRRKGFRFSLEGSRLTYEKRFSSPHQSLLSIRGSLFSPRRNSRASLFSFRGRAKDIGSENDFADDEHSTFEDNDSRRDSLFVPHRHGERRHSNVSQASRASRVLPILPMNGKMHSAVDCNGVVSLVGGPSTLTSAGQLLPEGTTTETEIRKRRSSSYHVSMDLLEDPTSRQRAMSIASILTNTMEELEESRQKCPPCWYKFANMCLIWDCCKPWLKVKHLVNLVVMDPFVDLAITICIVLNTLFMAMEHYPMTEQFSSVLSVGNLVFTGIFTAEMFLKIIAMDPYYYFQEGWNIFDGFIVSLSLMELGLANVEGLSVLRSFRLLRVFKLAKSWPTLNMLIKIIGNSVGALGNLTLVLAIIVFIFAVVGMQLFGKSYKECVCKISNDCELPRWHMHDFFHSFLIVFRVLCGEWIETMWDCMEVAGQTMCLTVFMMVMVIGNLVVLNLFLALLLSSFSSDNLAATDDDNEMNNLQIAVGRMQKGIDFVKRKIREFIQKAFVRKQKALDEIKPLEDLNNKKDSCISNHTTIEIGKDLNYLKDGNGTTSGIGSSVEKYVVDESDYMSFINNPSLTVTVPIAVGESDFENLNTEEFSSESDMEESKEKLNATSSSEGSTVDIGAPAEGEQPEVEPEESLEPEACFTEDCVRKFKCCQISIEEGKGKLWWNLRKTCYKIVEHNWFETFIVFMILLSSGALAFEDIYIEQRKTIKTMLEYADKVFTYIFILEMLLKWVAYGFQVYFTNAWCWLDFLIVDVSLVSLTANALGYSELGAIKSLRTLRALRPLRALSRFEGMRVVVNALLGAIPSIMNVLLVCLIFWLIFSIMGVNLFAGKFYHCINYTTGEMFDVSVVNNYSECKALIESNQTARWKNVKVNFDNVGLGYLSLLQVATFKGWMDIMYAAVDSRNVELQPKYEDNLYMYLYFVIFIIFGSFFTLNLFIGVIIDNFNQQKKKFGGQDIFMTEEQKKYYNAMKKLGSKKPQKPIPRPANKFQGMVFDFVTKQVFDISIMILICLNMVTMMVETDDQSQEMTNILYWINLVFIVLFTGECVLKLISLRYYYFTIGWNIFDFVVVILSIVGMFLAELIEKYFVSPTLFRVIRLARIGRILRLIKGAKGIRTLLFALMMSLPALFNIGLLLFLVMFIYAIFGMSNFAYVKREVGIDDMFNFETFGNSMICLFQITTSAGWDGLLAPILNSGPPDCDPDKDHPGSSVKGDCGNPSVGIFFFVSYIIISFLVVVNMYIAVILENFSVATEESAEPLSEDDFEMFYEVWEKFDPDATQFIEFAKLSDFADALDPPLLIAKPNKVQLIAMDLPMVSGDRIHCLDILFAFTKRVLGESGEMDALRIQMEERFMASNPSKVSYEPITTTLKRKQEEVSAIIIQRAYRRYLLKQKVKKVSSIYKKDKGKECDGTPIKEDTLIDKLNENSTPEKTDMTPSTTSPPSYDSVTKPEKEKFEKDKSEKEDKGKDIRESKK

[7] = Intrinsic clearance in human microsomes; assay type: ADME, Microsome
[8] = Intrinsic clearance in rat microsomes after 1 hr; assay type: ADME, Microsome
[9] = Ratio of drug level in brain to plasma in rat; assay type: ADME, cell-free; details: read-out: BPR
Plasma = experiment: (§1) Plasma protein binding in rat; assay type: ADME, cell-free
[10] = target: Voltage-gated inwardly rectifying potassium channel KCNH2 (Homo sapiens, UniProt Q12809); experiment: Inhibition of human ERG by Isotopic flux assay
Chain of Voltage-gated inwardly rectifying potassium channel KCNH2 (Q12809 whole entry): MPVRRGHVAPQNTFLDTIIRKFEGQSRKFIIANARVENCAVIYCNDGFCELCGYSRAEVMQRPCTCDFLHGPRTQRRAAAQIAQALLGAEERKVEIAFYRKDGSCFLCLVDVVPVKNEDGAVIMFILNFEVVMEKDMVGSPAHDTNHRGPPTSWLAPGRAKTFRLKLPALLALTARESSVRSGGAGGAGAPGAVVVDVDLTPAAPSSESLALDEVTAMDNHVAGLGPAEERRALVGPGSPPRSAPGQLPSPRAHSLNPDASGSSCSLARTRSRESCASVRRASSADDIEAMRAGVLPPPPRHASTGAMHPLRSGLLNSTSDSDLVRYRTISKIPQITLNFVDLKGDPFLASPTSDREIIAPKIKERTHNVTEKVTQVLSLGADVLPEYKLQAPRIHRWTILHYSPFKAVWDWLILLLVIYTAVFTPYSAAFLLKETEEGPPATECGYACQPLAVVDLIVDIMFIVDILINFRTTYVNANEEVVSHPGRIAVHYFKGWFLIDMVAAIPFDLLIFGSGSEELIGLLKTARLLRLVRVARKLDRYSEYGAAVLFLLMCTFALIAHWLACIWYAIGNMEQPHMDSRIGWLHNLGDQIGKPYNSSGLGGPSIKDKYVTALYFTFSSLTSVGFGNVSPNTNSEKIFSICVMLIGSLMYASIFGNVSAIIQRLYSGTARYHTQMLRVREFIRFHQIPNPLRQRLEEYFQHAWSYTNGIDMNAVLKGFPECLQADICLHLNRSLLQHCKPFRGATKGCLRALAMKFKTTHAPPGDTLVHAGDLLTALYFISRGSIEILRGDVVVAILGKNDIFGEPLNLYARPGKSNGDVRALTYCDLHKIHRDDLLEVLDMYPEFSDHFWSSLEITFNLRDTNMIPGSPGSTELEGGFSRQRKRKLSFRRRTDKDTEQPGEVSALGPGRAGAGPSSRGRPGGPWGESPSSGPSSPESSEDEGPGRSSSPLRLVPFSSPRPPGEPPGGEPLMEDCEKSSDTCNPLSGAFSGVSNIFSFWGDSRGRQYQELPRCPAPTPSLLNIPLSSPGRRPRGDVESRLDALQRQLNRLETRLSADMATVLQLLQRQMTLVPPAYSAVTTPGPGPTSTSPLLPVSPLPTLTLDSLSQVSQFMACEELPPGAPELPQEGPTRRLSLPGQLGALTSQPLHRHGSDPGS

[11] = Aqueous solubility of the compound; assay type: physicochemical; details: buffer
Rattus norvegicus [12] = species: Rattus norvegicus; experiment: Analgesic activity in rat Chung model of neuropathic pain; assay type: functional
[13] = target: T1, P2X2/P2X3 heterotrimeric receptor (Homo sapiens, UniProt P56373+Q9UBL9); experiment: Inhibition of P2X2/3 receptor; assay type: protein-complex assay
T1 sequence (Q9UBL9 whole entry): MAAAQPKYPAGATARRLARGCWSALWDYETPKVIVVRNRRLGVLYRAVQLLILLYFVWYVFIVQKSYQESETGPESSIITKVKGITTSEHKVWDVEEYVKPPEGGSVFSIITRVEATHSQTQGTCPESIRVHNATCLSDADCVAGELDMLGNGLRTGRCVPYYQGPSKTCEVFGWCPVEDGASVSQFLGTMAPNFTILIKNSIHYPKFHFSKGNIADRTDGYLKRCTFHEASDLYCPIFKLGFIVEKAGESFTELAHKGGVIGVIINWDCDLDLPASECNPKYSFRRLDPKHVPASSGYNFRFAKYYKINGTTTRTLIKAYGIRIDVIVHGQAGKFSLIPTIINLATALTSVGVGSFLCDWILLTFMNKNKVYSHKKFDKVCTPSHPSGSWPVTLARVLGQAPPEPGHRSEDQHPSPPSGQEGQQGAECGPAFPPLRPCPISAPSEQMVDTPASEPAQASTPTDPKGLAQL
T1 sequence (P56373 whole entry): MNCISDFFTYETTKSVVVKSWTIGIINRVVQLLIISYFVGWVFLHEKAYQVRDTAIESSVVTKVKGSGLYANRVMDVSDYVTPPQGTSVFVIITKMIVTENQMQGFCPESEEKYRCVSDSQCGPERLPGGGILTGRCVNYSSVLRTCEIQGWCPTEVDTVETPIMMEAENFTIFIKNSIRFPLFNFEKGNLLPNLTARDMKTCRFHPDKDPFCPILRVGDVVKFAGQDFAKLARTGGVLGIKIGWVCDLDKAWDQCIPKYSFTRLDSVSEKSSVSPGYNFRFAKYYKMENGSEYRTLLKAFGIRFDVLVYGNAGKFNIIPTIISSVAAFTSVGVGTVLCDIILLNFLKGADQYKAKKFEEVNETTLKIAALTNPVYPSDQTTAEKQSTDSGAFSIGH

[14] = Volume of distribution at steady state in rat; assay type: ADME, organism-based; details: in vivo, read-out: Vdss
[15] = Plasma clearance in rat; assay type: ADME, organism-based
[16] = Oral bioavailability in rat at 3 mg/kg; assay type: ADME, organism-based; details: in vivo
Rattus norvegicus [17] = species: Rattus norvegicus; experiment: Analgesic activity in rat Chung model of neuropathic pain assessed as decrease in von Frey filament-induced pain; assay type: functional
[18] = target: Voltage-dependent N-type calcium channel subunit alpha-1B (Homo sapiens, UniProt Q00975); experiment: Inhibition of CaV2.2
[19] = Inhibition of chloride channel at 10 uM
[20] = Cmax in rat; assay type: ADME, organism-based; details: in vivo
[21] = target: Sodium channel protein type 5 subunit alpha (Homo sapiens, UniProt Q14524); experiment: Inhibition of human NaV1.5 by electrophysiology
[22] = target: Voltage-gated potassium channel, KQT; KCNQ2(Kv7.2)/KCNQ3(Kv7.3) (Homo sapiens, UniProt O43525+O43526); experiment: Inhibition of KCNQ2/Q3; assay type: protein-complex assay
[23] = target: Transient receptor potential cation channel subfamily V member 1 (Homo sapiens, UniProt Q8NER1); experiment: Inhibition of TRPV1
[24] = as §1; assay type: ADME, cell-free; details: read-out: PPB (converted)
[25] = Inhibition of benzodiazepine receptor at 10 uM

Chain of Sodium channel protein type 10 subunit alpha (Homo sapiens, UniProt Q9Y5Y9) (Q9Y5Y9 whole entry): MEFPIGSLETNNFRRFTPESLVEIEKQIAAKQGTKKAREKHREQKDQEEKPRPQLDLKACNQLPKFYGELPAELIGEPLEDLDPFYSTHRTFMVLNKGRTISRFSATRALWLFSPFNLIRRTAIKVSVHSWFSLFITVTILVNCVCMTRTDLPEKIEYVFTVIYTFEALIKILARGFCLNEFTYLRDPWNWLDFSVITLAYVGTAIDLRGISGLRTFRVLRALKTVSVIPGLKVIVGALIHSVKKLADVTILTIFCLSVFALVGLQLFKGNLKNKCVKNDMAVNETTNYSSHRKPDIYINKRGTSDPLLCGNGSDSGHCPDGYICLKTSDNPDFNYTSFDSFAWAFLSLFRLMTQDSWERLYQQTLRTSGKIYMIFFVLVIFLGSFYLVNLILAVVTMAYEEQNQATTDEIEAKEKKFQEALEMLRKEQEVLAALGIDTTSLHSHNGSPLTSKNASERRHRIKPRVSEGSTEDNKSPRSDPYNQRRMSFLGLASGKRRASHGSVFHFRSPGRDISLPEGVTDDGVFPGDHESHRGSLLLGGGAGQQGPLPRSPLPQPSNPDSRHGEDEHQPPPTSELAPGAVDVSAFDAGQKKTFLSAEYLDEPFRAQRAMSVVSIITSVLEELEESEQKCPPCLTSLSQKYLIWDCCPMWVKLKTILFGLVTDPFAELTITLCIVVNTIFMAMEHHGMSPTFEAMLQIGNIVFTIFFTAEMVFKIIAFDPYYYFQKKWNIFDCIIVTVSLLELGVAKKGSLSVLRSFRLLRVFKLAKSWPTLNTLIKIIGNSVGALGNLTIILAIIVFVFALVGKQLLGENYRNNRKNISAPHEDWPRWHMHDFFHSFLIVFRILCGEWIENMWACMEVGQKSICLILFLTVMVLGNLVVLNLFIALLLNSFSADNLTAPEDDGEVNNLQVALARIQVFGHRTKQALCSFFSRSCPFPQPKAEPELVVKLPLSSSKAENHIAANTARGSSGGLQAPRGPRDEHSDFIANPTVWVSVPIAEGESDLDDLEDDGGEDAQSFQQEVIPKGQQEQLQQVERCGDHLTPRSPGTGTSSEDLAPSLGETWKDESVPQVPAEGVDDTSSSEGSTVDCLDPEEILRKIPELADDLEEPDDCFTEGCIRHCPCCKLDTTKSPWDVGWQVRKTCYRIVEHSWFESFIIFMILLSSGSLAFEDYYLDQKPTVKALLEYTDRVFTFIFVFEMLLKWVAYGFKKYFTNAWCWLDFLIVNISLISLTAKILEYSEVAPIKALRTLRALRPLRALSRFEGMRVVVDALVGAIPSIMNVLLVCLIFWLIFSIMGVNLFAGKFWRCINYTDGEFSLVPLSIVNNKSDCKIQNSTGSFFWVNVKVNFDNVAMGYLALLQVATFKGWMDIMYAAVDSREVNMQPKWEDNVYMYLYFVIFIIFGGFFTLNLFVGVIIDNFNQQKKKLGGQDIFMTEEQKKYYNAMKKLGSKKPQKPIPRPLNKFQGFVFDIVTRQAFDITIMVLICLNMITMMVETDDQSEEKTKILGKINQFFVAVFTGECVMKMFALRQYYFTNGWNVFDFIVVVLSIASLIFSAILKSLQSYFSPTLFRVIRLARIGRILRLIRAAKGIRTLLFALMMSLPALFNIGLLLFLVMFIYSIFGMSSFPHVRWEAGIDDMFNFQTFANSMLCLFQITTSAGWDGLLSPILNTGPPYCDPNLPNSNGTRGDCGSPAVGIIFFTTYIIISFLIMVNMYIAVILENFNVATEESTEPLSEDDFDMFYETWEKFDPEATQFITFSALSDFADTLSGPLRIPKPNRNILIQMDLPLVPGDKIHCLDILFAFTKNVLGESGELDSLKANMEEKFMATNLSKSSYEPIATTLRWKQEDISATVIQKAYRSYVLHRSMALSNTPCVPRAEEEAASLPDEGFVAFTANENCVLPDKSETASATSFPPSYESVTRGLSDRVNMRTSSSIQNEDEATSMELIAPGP

Structure (SMILES)	IC50 [1]	Ratio IC50 (Homo sapiens [2])	IC50 [3]	Ratio IC50 (Homo sapiens [4])	IC50 [5]	IC50 [6]	other results
Cc1cc(C)cc(NC(=O)c2cncc(-c3ccc(F)cc3)c2)c1	100 nM	> 30	210 nM	> 30	1900 nM	–	–
O=C(NCc1ccccc1)c1cncc(-c2ccc(Cl)cc2)c1	22 nM	–	85 nM	–	620 nM	1900 nM	–
O=C(NCc1ccccc1Cl)c1cncc(-c2ccc(Cl)cc2)c1	4 nM	–	66 nM	–	81 nM	1200 nM	–
Cc1cc(C)cc(NC(=O)c2cncc(-c3ccc(Cl)cc3)c2)c1	9 nM	> 30	87 nM	> 30	610 nM	–	–
Cc1cc(C)cc(NC(=O)c2cncc(-c3ccc(OC(F)(F)F)cc3)c2)c1	26 nM	> 30	97 nM	> 30	530 nM	–	–
Cc1ncccc1CNC(=O)c1cncc(-c2ccc(Cl)cc2)c1	–	–	–	–	2600 nM	–	–
O=C(NCc1ccccc1N1CCOCC1)c1cncc(-c2ccc(Cl)cc2)c1	10 nM	–	130 nM	–	32 nM	120 nM	–
Cc1cc(C)cc(NC(=O)c2cccc(-c3ccc(OC(F)(F)F)cc3)n2)c1	64 nM	> 30	510 nM	> 30	1500 nM	–	–
Cc1cc(C)cc(NC(=O)c2nsc(-c3ccc(OC(F)(F)F)cc3)n2)c1	8 nM	> 30	520 nM	> 30	280 nM	–	microsomal CLint [7]: > 300 µL/min/mg; microsomal CLint [8]: > 300 µL/min/mg
O=C(NCc1ccccc1N1CCCCC1)c1cncc(-c2ccc(Cl)cc2)c1	8 nM	–	45 nM	–	< 30 nM	50 nM	–
Cc1cc(C)cc(NC(=O)c2ccnc(-c3ccc(OC(F)(F)F)cc3)c2)c1	780 nM	> 30	–	> 30	11000 nM	–	–
O=C(NCc1cccnc1)c1cncc(-c2ccc(Cl)cc2)c1	–	–	–	–	7900 nM	–	–
O=C(NCc1cccnc1OCC(F)(F)F)c1cncc(-c2ccc(Cl)cc2)c1	3 nM	–	28 nM	–	87 nM	2800 nM	Kp [9]: 1; PPB (Plasma): 98.7%; IC50 [10]: 19000 nM; solubility [11]: 3.1 µg/mL (≈ 7.35 µM); ED50 (Rattus norvegicus [12]): 65 mg/kg; IC50 [13]: > 10000 nM; Vd [14]: 2 L/kg; clearance [15]: 10 mL/min/kg; bioavailability [16]: 95%; microsomal CLint [8]: 68 µL/min/mg; Emax (Rattus norvegicus [17]): 66%; IC50 [18]: > 10000 nM; inhibition [19]: > 70%; Cmax [20]: 350 ng/mL; IC50 [21]: 4700 nM; IC50 [22]: > 10000 nM; IC50 [23]: > 10000 nM
Cc1cc(C)cc(NC(=O)c2nc(-c3ccc(OC(F)(F)F)cc3)no2)c1	470 nM	> 30	820 nM	> 30	870 nM	–	–
Cc1cc(C)cc(NC(=O)c2cnc(-c3ccc(OC(F)(F)F)cc3)o2)c1	280 nM	> 30	950 nM	> 30	340 nM	–	–
O=C(NCc1cccnc1Cl)c1cncc(-c2ccc(Cl)cc2)c1	140 nM	–	560 nM	–	680 nM	18000 nM	–
O=C(NCc1cccnc1N1CCCCC1)c1cncc(-c2ccc(Cl)cc2)c1	14 nM	–	8 nM	–	26 nM	70 nM	–
Cc1cc(C)cc(NC(=O)c2cncc(-c3ccc(OC(F)(F)F)cc3)n2)c1	21 nM	> 30	34 nM	> 30	57 nM	–	–
Cc1cc(C)cc(NC(=O)c2cncc(-c3ccc(C#N)cc3)c2)c1	23 nM	> 30	91 nM	> 30	190 nM	–	Kp [9]: 1.3; fraction unbound [24]: 0.005; IC50 [10]: 16000 nM; inhibition [25]: > 70%; solubility [11]: 1.4 µg/mL (≈ 4.28 µM); ED50 (Rattus norvegicus [12]): 72 mg/kg; IC50 [13]: > 10000 nM; Vd [14]: 0.5 L/kg; clearance [15]: 16.7 mL/min/kg; bioavailability [16]: 17%; microsomal CLint [8]: 270 µL/min/mg; Emax (Rattus norvegicus [17]): 60%; IC50 [18]: > 10000 nM; Cmax [20]: 740 ng/mL; IC50 [21]: > 30000 nM; IC50 [22]: > 10000 nM; IC50 [23]: > 10000 nM
Cc1cc(C)cc(NC(=O)c2ccc(-c3ccc(OC(F)(F)F)cc3)o2)c1	2 nM	> 30	130 nM	> 30	290 nM	–	–
Cc1cc(C)cc(NC(=O)c2csc(-c3ccc(OC(F)(F)F)cc3)n2)c1	51 nM	> 30	380 nM	> 30	400 nM	–	microsomal CLint [7]: > 300 µL/min/mg; microsomal CLint [8]: > 300 µL/min/mg
Cc1cc(C)cc(NC(=O)c2coc(-c3ccc(OC(F)(F)F)cc3)n2)c1	180 nM	> 30	2000 nM	> 30	1400 nM	–	–
CCOc1ncccc1CNC(=O)c1cncc(-c2ccc(Cl)cc2)c1	7 nM	–	32 nM	–	88 nM	670 nM	–
COc1cc(NC(=O)c2ccc(-c3ccc(Cl)cc3)o2)cc(OC)c1	–	–	125 nM	100	–	–	solubility [11]: < 0.1 µg/mL; bioavailability [16]: 10%
Cc1ccccc1CNC(=O)c1cncc(-c2ccc(Cl)cc2)c1	2 nM	–	9 nM	–	< 30 nM	110 nM	–
O=C(NCc1cccnc1N1CCOCC1)c1cncc(-c2ccc(Cl)cc2)c1	87 nM	–	98 nM	–	340 nM	1600 nM	solubility [11]: > 50 µg/mL
